From patent US20210308138A1, “TISSUE TRANSGLUTAMINASE MODULATORS FOR MEDICINAL USE” (Aarhus Universitet, priority 2018, published 2021)
Entries after “also recorded” stand apart in the source; their conditions may differ.

Experiments:
[1] = test system: small mesenteric arteries; assay: Acetylcholine-induced endothelium-dependent relaxation of phenylephrine pre-contracted small mesenteric arteries, isometric myograph (ex vivo); set-up: species or system Male Wistar rats
Experimental: Small mesenteric arteries were mounted in microvascular myographs (Danish Myotechnology, Aarhus, Denmark) using two 40 μm wires and stretched to their optimal diameter for isometric tension recordings, which corresponded to 0.9 times the estimated internal diameter at 100 mmHg of transmural pressure. PSS solution in the myograph bath was heated to 37° C. and continuously bubbled with 5% CO2 in air to maintain pH (7.4). The vessel viability was tested at the beginning of each experiment by measuring the vasoconstrictor responses to a solution with a high K^+ concentration (KPSS), equivalent to PSS except that NaCl was exchanged for KCl on an equimolar basis, giving a final concentration of 123.7 mmol/L K^+ and the presence of endothelium was confirmed by addition of acetylcholine (ACh) (10^−5) after pre-constriction with noradrenaline (5·10^−6 mol/L), arteries with less than 75% of relaxation were discarded.
Mesenteric arteries from rats of different age were incubated with (10^−6 mol/L) LDN-27219 or vehicle for 25 minutes and pre-contracted with phenylephrine (Phe) (10^−5 mol/L). Then cumulative addition of acetylcholine (ACh) caused the relaxation of the mesenteric arteries and the concentration-response curves were constructed.
Rats of 5-7 weeks age, about 12 weeks age, and more than 30 weeks of age were tested respectively. The results of the isometric tension studies are shown in FIGS. 1, A), B) and C) respectively, each representing a different their age group.
The small mesenteric arteries were prepared in the same way is described in example 1.

Male Wistar rats = assay: Mean arterial pressure (MAP) in vivo measurement after intrajugular infusion
Experimental: For ‘in vivo’ experiments Wistar rats of different age were fasted 8 h before anesthesia with 35 mg/kg of S-ketamine and 50 mg/kg of pentobarbital sodium administered intraperitoneally.
Male Wistar rats with 12-14 and 30-35 weeks of age were anesthetized with s-ketamine (35 mg/kg) and pentobarbital (50 mg/kg) and placed on a heated blanket to maintain body temperature at 37° C. ECG needles were installed for electrocardiographic measurements and a solid state catheter (Millar Inc, Houston, USA) was introduced into the carotid artery to measure MAP. MAP and electrocardiographic data was continuously recorded on a computerized data acquisition system (PowerLab, ADInstruments). Adequate depth of anesthesia was checked periodically by the absence of the toe pinch withdrawal effect and ⅓ of the initial dose of anesthetics was administered intraperitoneally when needed (usually each 1½ h). Changes in MAP and electrocardiographic signal in response to intrajugular infusion during 3 minutes of different doses of LDN-27219 and the corresponding vehicle (PEG-400) were studied.
The Area Under the Curve (AUC) was calculated using Graphpad Prism 5.1 (GraphPad Software, San Diego, Calif., USA) for each response to the change in MAP that was collected during the experiments in example 3. The AUC gives information about the maximal response, and about the duration of the effect.
Rats of different age in these experiments were anesthetized, prepared and catheterized as described in Example 3.

[2] = test system: small subcutaneous arteries obtained from human biopsies; assay: Direct relaxation of human small subcutaneous arteries; details: LDN-27219 10^−8-10^−5 mol/L; hypertensive patients
Experimental: Human subcutaneous arteries were obtained from fat biopsies of the gluteal region from both male and female patients (30-70 years of age) with essential hypertension.
For ‘ex vivo’ studies, animals were randomly selected and euthanized by cervical dislocation and exanguination. The mesenteric arteries were immediately extracted and placed in 4° C. physiological saline solution (PSS, pH=7.4) of the following composition (mmol/L): 119 NaCl, 4.7 KCl, 1.18 KH2PO4, 1.17 MgSO4, 1.5 CaCl2), 24.9 NaHCO3, 0.026 EDTA and 5.5 glucose and small mesenteric arteries (internal diameters of 200-300 μm) were isolated. Human subcutaneous arteries (internal diameters of 300-400 μm) were dissected from the biopsies in the same conditions mentioned above for the mesenteric bed from rodents.
Small human subcutaneous arteries were obtained from fat biopsies from the gluteal region of hypertensive patients and prepared as described in Example 1. Concentration-response curves for LDN-27219 were constructed as described in Example 4 (FIG. 5B) and relaxation measurements were performed as described in Example 1.

NNC(=O)CSc1nc2scc(-c3ccccc3)c2c(=O)n1-c1ccccc1 [LDN-27219]
LDN-27219 potentiation of ACh-induced vasodilation in presence of irreversible TG2 inhibitor ([1]; LDN-27219 10^−6 mol/L with VA-5 10^−5 mol/L, ≈12 week rats): reduced or completely inhibited | endothelium-dependent relaxation induced by acetylcholine, compared to vehicle ([1]; LDN-27219 10^−6 mol/L, 25 min incubation, Phe 10^−5 mol/L pre-contraction, rats of different age): more potent endothelium-dependent relaxation; also recorded: increased the response to ACh | age dependence of the effect on acetylcholine-induced relaxation ([1]; LDN-27219 10^−6 mol/L, rats 6-7, ≈12 and >30 weeks old): more pronounced in old rats, than in young rats | mean blood pressure (MAP) (Male Wistar rats; LDN-27219 0.1, 1.0 and 2.0 mg/kg, intrajugular infusion during 3 minutes, carotid artery): lowers the mean blood pressure | age dependence of antihypertensive effect (AUC of MAP) (Male Wistar rats; rats >30 weeks vs 12-14 weeks old): greater effect of LDN-27219 in older animals | direct relaxation of human small subcutaneous arteries [2]: direct and dose-dependent relaxation
